From patent publication US20240277682A1, “PHARMACEUTICAL HYDRONIDONE FORMULATIONS FOR DISEASES” (Gyre Therapeutics, Inc., priority 2021, published 2024)

Assay: In vitro drug-drug interaction with Entecavir and Lamivudine in human liver microsomes
Conditions: each 1.5 mM, P>0.05
Experimental: Entecavir and Lamivudine, were used concomitantly with Hydronidone, or individually, in the in vitro drug interaction experiments, in respective concentrations of each of 1.5 mM.

Question: For Nc1ccn([C@@H]2CS[C@H](CO)O2)c(=O)n1 [lamivudine, reference compound], which “drug interactions with Hydronidone (residual drug concentrations, individual vs combined medication groups)” value is on record?
Answer: do not exhibit drug interactions with Hydronidone
